Assay results: patent publication US7572775B2, “Method of inhibiting intestinal polyps” (Japan as Represented by Director General of Agency of …, priority 2004, dated 2009)
Marks after values point to notes of the source that are not given here.

System: Min mice of a familial adenomatous polyposis model (Apc gene deficient mice, C57BL/6-ApcMin/+)
Assay: Intestinal polyp suppression test (intestinal polyp assay) in Min mice
Type: in vivo, mouse
Conditions: for Number of polyps/mouse, colon / Number of polyps/mouse, small intestine, central / Number of polyps/mouse, small intestine, distal / Number of polyps/mouse, small intestine, proximal / Number of polyps/mouse, total / Number of polyps, percentage of the result for the 0 dose (control) group, small intestine, central / Number of polyps, percentage of the result for the 0 dose (control) group, small intestine, distal / Number of polyps, percentage of the result for the 0 dose (control) group, small intestine, proximal / Number of polyps, percentage of the result for the 0 dose (control) group, colon / Number of polyps, percentage of the result for the 0 dose (control) group, total: male Min mice; for Number of polyps/mouse, colon / Number of polyps/mouse, small intestine, central / Number of polyps/mouse, small intestine, distal / Number of polyps/mouse, small intestine, proximal / Number of polyps/mouse, total: average ± SE; for Number of polyps, percentage of the result for the 0 dose (control) group, small intestine, proximal: p < 0.01 vs control
Description: The experimental animals were male Min mice of a familial adenomatous polyposis model (Apc (Adenomatous polyposis coli) gene deficient mice, C57BL/6-ApcMin/+, Jackson Laboratory, Bar Harbor, Me.). These mice were purchased at age 5 weeks, and acclimatized for 2 weeks to laboratory conditions (24±2° C., humidity 55%, 12 hours light/12 hours dark cycle, free access to feed and water) before being used in the tests. The feed was “AIN-76A” basic feed (Clea Japan).
Wild-type […] mice (from the same source) were subjected to the same test as a control.
Compound A was used as the experimental medicine. The compound was mixed to a specific concentration (400 ppm or 800 ppm) with the AIN-76A basic feed for use in the tests.
Feed comprising a specific amount of the experimental medicine mixed to a specific concentration with basic feed (AIN-76A) was administered to the experimental group mice (2 groups of 10 mice) and comparison group mice (1 group of 10 mice) for 13 weeks from age 7 weeks to age 20 weeks (natural feeding). When death was confirmed during the experiment, however, administration was naturally discontinued.
A group of 10 mice receiving basic feed (AIN-76A) without the experimental medicine added for the same length of time was set up as a control group (experimental drug non-administration group).
13 weeks after the start of the experiment the mice in all groups (excluding those which had died) were euthanized, and an intestinal polyp assay was performed as follows.
The intestines were removed from the mice in all groups, placed in phosphate buffer containing 10% formalin, and then separated into four parts: (1) the colon, (2) the proximal part of the small intestine (about 4 cm long beginning at the pylorus), (3) the central part of the small intestine (the center of the remaining half of the small intestine) and (4) the distal part of the small intestine (the distal part of the remaining half of the small intestine). Each part was opened longitudinally, and fixed flat between sheets of filter paper in phosphate buffer containing 10% formalin.
The number and size of polyps and their distribution in the intestines were counted, measured and evaluated under a stereoscopic microscope. These methods are described in the literature reference(Watanabe, K. et al., “Role of the prostaglandin E receptor subtype EP1 in colon carcinogenesis”, Cancer Res., 59, 5093-6 (1999)).

[1] = 400 ppm in AIN-76A feed for 13 weeks
[2] = 400 ppm in feed for 13 weeks, p < 0.05 vs control
[3] = 800 ppm in AIN-76A feed for 13 weeks
[4] = 800 ppm in feed for 13 weeks, p < 0.05 vs control

CCOP(=O)(Cc1ccc(C(=O)Nc2ccc(Br)cc2C#N)cc1)OCC [Compound A, 4-diethoxyphosphinoylmethyl-N-(4-bromo-2-cyanophenyl)benzamide]
Number of polyps by polyp diameter (FIG. 1) (400 ppm and 800 ppm in feed, Min mice, polyp diameter (mm)): reduction in the number of polyps of all sizes | Number of polyps/mouse, colon [1]: 0.4 ± 0.2 polyps/mouse | Number of polyps/mouse, small intestine, central [1]: 16.1 ± 3.8 polyps/mouse | Number of polyps/mouse, small intestine, distal [1]: 33.0 ± 6.5 polyps/mouse | Number of polyps/mouse, small intestine, proximal [1]: 8.5 ± 1.4 polyps/mouse | Number of polyps/mouse, total [1]: 58.0 ± 10.8 polyps/mouse | Number of polyps, percentage of the result for the 0 dose (control) group, small intestine, central (400 ppm in feed for 13 weeks): (43) percentage | Number of polyps, percentage of the result for the 0 dose (control) group, small intestine, distal (400 ppm in feed for 13 weeks): (55) percentage | Number of polyps, percentage of the result for the 0 dose (control) group, small intestine, proximal (400 ppm in feed for 13 weeks): (37)^d percentage | Number of polyps, percentage of the result for the 0 dose (control) group, colon [2]: (38)^c percentage | Number of polyps, percentage of the result for the 0 dose (control) group, total [2]: (48)^c percentage | Mice that died during the experiment (death due to bleeding from polyps) (400 ppm in feed, group of 10 Min mice, 13 weeks, 3 died in the control group): 2 mice | Number of polyps/mouse, colon [3]: 0.3 ± 0.2 polyps/mouse | Number of polyps/mouse, small intestine, central [3]: 13.8 ± 2.6 polyps/mouse | Number of polyps/mouse, small intestine, distal [3]: 30.5 ± 5.0 polyps/mouse | Number of polyps/mouse, small intestine, proximal [3]: 5.9 ± 1.0 polyps/mouse | Number of polyps/mouse, total [3]: 50.5 ± 7.8 polyps/mouse | Number of polyps, percentage of the result for the 0 dose (control) group, small intestine, proximal (800 ppm in feed for 13 weeks): (26)^d percentage | Number of polyps, percentage of the result for the 0 dose (control) group, colon [4]: (30)^c percentage | Number of polyps, percentage of the result for the 0 dose (control) group, small intestine, central [4]: (37)^c percentage | Number of polyps, percentage of the result for the 0 dose (control) group, small intestine, distal [4]: (51)^c percentage | Number of polyps, percentage of the result for the 0 dose (control) group, total [4]: (42)^c percentage | Polyp suppression effect (dosage of either 400 ppm or 800 ppm in feed, Min mice): excellent polyp suppression effect
